Data from the supplement of paper PMC13380429.

Columns and labels:
Conditions in all cases: 72 h
Calu-3 [1] = assay: cell viability relative to DMSO; higher = less toxic
HepG2 [2] = assay: as above
U2OS [3] = assay: as above
Vero E6 [4] = assay: as above
Caco-2 [5] = assay: as above
HepG2 [6] = assay: relative viability EC50 (midpoint between 100% and the lowest measured viability); higher = less toxic
U2OS [7] = assay: as above
Vero E6 [8] = assay: as above
Caco-2 [9] = assay: as above
Calu-3 [10] = assay: drug sensitivity score (DSS) for viability; higher = more toxic; extreme values may be limits of the assay
HepG2 [11] = assay: as above
U2OS [12] = assay: as above
Vero E6 [13] = assay: as above
Caco-2 [14] = assay: as above
Calu-3 [15] = assay: relative viability EC50 (midpoint between 100% and the lowest measured viability); higher = less toxic

SMILES | cell viability (Calu-3 [1]; 1 nM) [%] | cell viability (Calu-3 [1]; 10 nM) [%] | cell viability (Calu-3 [1]; 100 nM) [%] | cell viability (Calu-3 [1]; 1000 nM) [%] | cell viability (Calu-3 [1]; 10000 nM) [%] | cell viability (HepG2 [2]; 1 nM) [%] | cell viability (HepG2 [2]; 10 nM) [%] | cell viability (HepG2 [2]; 100 nM) [%] | cell viability (HepG2 [2]; 1000 nM) [%] | cell viability (HepG2 [2]; 10000 nM) [%] | cell viability (U2OS [3]; 1 nM) [%] | cell viability (U2OS [3]; 10 nM) [%] | cell viability (U2OS [3]; 100 nM) [%] | cell viability (U2OS [3]; 1000 nM) [%] | cell viability (U2OS [3]; 10000 nM) [%] | cell viability (Vero E6 [4]; 1 nM) [%] | cell viability (Vero E6 [4]; 10 nM) [%] | cell viability (Vero E6 [4]; 100 nM) [%] | cell viability (Vero E6 [4]; 1000 nM) [%] | cell viability (Vero E6 [4]; 10000 nM) [%] | cell viability (Caco-2 [5]; 1 nM) [%] | cell viability (Caco-2 [5]; 10 nM) [%] | cell viability (Caco-2 [5]; 100 nM) [%] | cell viability (Caco-2 [5]; 1000 nM) [%] | cell viability (Caco-2 [5]; 10000 nM) [%] | relative viability EC50 (HepG2 [6]) [µM] | relative viability EC50 (U2OS [7]) [µM] | relative viability EC50 (Vero E6 [8]) [µM] | relative viability EC50 (Caco-2 [9]) [µM] | drug sensitivity score (Calu-3 [10]) | drug sensitivity score (HepG2 [11]) | drug sensitivity score (U2OS [12]) | drug sensitivity score (Vero E6 [13]) | drug sensitivity score (Caco-2 [14]) | relative viability EC50 (Calu-3 [15]) [µM]
COc1ccc2[nH]c3c(-c4cccc5ccccc45)nccc3c2c1 [SP-141] | 98.7 | 106 | 105 | 67.4 | 67.2 | 102 | 101 | 95.9 | 47.8 | 42.8 | 110 | 109 | 106 | 53.9 | 21.3 | 95.5 | 101 | 97.8 | 39.1 | 29.2 | 91.8 | 103 | 99.2 | 60 | 39.5 | 0.332 | 0.873 | 0.453 | 0.741 | 5.3 | 10.2 | 9.9 | 11.5 | 8.1 | 
O=C1CN2Cc3c(ccc(Cl)c3Cl)N=C2N1 [anagrelide] |  |  |  |  |  | 101 | 102 | 104 | 101 | 96.7 |  |  |  |  |  | 106 | 107 | 103 | 102 | 99.3 | 101 | 97.8 | 97.6 | 99.8 | 96.9 | > 10 |  | > 10 | > 10 |  | 0 |  | 0 | 0 | 
Cn1cnc([N+](=O)[O-])c1Sc1ncnc2[nH]cnc12 [azathioprine] | 94.8 | 93.6 | 93.1 | 94.4 | 98.7 | 95.2 | 89.7 | 93 | 75.1 | 20 | 104 | 97.9 | 96.2 | 71.9 | 78.9 | 94.2 | 96.6 | 94.8 | 96 | 82.7 | 110 | 86.8 | 93 | 92.7 | 92.9 | 1.46 |  | > 10 | > 10 | 0 | 7.7 | 5.2 | 0.7 | 0 | > 10
COc1cc2ncnc(Nc3ccc(F)c(Cl)c3)c2cc1NC(=O)/C=C/CN1CCCCC1 [dacomitinib] | 83.5 | 73.7 | 40.8 | 32.1 | 17 | 104 | 97.8 | 91.3 | 97 | 37.8 | 94.3 | 97.3 | 94.5 | 94.7 | 43.6 | 99.6 | 92.7 | 59.5 | 48.2 | 39.5 | 95.3 | 89.6 | 90.6 | 69.3 | 71.2 | 2.79 | 2.39 | 0.0579 |  | 23.8 | 3.8 | 3.9 | 15.8 | 5.6 | 0.027
CC1=C(CCC(=O)O)c2cc3[nH]c(cc4nc(cc5[nH]c(cc1n2)c(C)c5C(C)O)C(C)=C4C(C)O)c(C)c3CCC(=O)O (stereo unspecified) [hematoporphyrin] | 97.8 | 89 | 87.2 | 94.5 | 88.1 | 103 | 99.9 | 91.3 | 99.1 | 79.2 | 100 | 96.7 | 102 | 93.6 | 94.5 | 106 | 106 | 98.8 | 104 | 80.3 | 109 | 96.3 | 96.6 | 105 | 74.1 | > 10 | > 10 | > 10 |  | 0.6 | 0.8 | 0 | 0.4 | 0.8 | > 10
OCc1c[nH]c2ccccc12 [indole-3-carbinol] |  |  |  |  |  | 105 | 96 | 99.9 | 88.1 | 101 | 99.9 | 101 | 99.3 | 104 | 93.7 | 104 | 97.1 | 93.1 | 99.2 | 97.5 | 103 | 103 | 99 | 97.8 | 87.4 | > 10 | > 10 | > 10 | > 10 |  | 0 | 0 | 0 | 0.2 | 
C[C@H](N)[C@H](O)c1ccc(O)c(O)c1 [levonordefrin] | 102 | 96.8 | 98 | 104 | 100 | 105 | 105 | 97 | 96.8 | 93.9 |  |  |  |  |  | 109 | 109 | 103 | 108 | 91.9 | 97.8 | 89.7 | 96.8 | 88.6 | 93.8 | > 10 |  | > 10 | > 10 | 0 | 0 |  | 0 | 0 | > 10
C=CC(C)(O)CCC=C(C)C (stereo unspecified) [linalool] |  |  |  |  |  | 95.5 | 102 | 96.5 | 100 | 95.2 | 103 | 95.7 | 97.4 | 95 | 97.9 | 101 | 104 | 96.3 | 102 | 98.7 | 110 | 99.2 | 99.2 | 93.7 | 99.2 | > 10 | > 10 | > 10 | > 10 |  | 0 | 0 | 0 | 0 | 
CN(CCCN1c2ccccc2CCc2ccccc21)CC(=O)c1ccc(Cl)cc1 [lofepramine] |  |  |  |  |  | 105 | 105 | 102 | 96.9 | 106 |  |  |  |  |  | 99 | 102 | 97.2 | 101 | 101 | 103 | 107 | 101 | 94.9 | 92 | > 10 |  | > 10 | > 10 |  | 0 |  | 0 | 0 | 
Nc1ccc2cc3ccc(N)cc3nc2c1 [proflavine-hemisulfate] | 89.2 | 95.9 | 103 | 103 | 62.6 | 96.5 | 103 | 92.7 | 76.2 | 2 |  |  |  |  |  | 94.6 | 100 | 90.7 | 89.4 | 35.8 | 100 | 88.4 | 99 | 105 | 49.3 | 1.57 |  | 1.9 | 3.6 | 1.6 | 9.1 |  | 5.3 | 2.3 | 
CC(C)C[C@H](NC(=O)[C@@H]1CCCN1)C(=O)NCC(N)=O [prolylleucylglycinamide] | 97.1 | 96.3 | 99.4 | 106 | 104 | 109 | 107 | 107 | 99.2 | 107 |  |  |  |  |  | 102 | 105 | 102 | 103 | 98.2 | 95 | 95.1 | 98.1 | 96 | 96.6 | > 10 |  | > 10 | > 10 | 0 | 0 |  | 0 | 0 | > 10
CN1CCCN=C1/C=C/c1cccs1 [pyrantel-pamoate] |  |  |  |  |  | 97.4 | 106 | 103 | 104 | 92.6 | 99.6 | 96.9 | 99.1 | 95.3 | 101 | 107 | 99.9 | 96.4 | 101 | 99.4 | 93.3 | 94.8 | 98.8 | 96 | 100 | > 10 | > 10 | > 10 | > 10 |  | 0 | 0 | 0 | 0 | 
CCN(CC)CCNC(=O)c1cc(S(C)(=O)=O)ccc1OC [tiapride] | 97.5 | 89.2 | 101 | 106 | 100 | 102 | 103 | 94.2 | 103 | 97.5 |  |  |  |  |  | 99.9 | 100 | 103 | 99.5 | 104 | 104 | 93.5 | 95.9 | 100 | 101 | > 10 |  | > 10 | > 10 | 0 | 0 |  | 0 | 0 | > 10
C/C(=C\CNc1ncnc2[nH]cnc12)CO [zeatin] |  |  |  |  |  | 94.7 | 92.9 | 108 | 102 | 110 | 96.8 | 99.4 | 95.4 | 98.9 | 102 | 95.7 | 99.4 | 97 | 100 | 107 | 94.1 | 104 | 88.1 | 92.5 | 101 | > 10 | > 10 | > 10 | > 10 |  | 0 | 0 | 0 | 0 | 
